Patent US5594157A, “Process for making taxol derivatives” (Abbott Laboratories, priority 1995, dated 1997)
Converted amounts (≈) assume the structure as drawn.

Columns and labels:
[1] = tested on: A549; experiment: In vitro tumor cell cytotoxicity, three day MTT microtiter assay (A549); type: cell-based, human; conditions: Homo sapiens, A549, 72 h, read-out: In vitro tumor cell cytotoxicity (IC50)
Protocol: (§1) A three day microtiter assay was used to measure the growth inhibition of cultured cells exposed to a range of drug concentrations. Metabolic activity was measured by the cells' ability to reduce the tetrazolium dye, MTT (3-(4,5-dimethylthiazol-2-yl-2,5-diphenyltetrazolium bromide) to a quantifiable colored end product, which absorbs at 570 nm in the visible spectrum. Surviving cells reduce the MTT dye.
(§2) Test compounds were dissolved in dimethyl sulfoxide (DMSO) and diluted, first with Earle's Balanced Salt Solution, followed by culture medium, to twice the highest concentration of compound to be tested. From this concentrated stock, two-fold serial dilutions were prepared in 96-well microtiter trays, each well containing twice the desired final concentration of compound. Each concentration was tested in triplicate and compared to triplicate drug-free controls.
(§3) The cells were grown in the same medium used for diluting the compounds and then harvested using trypsinization. This involved removing the medium by aspiration; rinsing the cell monolayer twice with Earle's Balanced Salt Solution; adding trypsin (0.05%)/EDTA (0.53 mM; for each 25 cm^2, approximately 0.2 mL), tilting to cover the monolayer, and then withdrawing trypsin leaving only a thin film of solution; incubating at room temperature until the cell monolayers detached (as determined by visual and/or microscopic observation); adding medium contaiing fetal calf serum to stop the action of the trypsin and resuspend the cells; triturating to aid dissociation of cell clumps; and determining the number of cells per milliliter by electronic cell counter (e.g. Coulter Counter) or by mixing an aliquot of cell suspension with Trypan Blue (0.4% in normal saline) and counting the viable cells using a hemacytometer.
(§4) After harvesting and determination of viable cell counts, cell density was adjusted to 25,000 cells/mL. Inoculum (0.1 mL) containing the cells was then added to each well for a final concentration of 2,500 cells per well. Addition of the inoculum diluted the test compounds to the desired final concentration.
(§5) Microtiter trays were then incubated for three days at 36° C. in a humidified atmosphere containing 5% carbon dioxide. After three days, 20 microtiters of 5 mg/mL MTT in phosphate-buffered saline solution were added to each well. Trays were returned to the incubator for two to four hours to allow the surviving cells to reduce the dye. Medium and unreduced dye were removed by aspiration. DMSO was added to each well to dissolve the water-insoluble, colored end product of the dye reduction so that it could be measured spectrophotometrically at 570 nm.

[2] = tested on: P-388; experiment: In vitro tumor cell cytotoxicity, three day MTT microtiter assay (P-388); type: cell-based, mouse; conditions: Mus musculus, P388, 72 h, read-out: In vitro tumor cell cytotoxicity (IC50)
Protocol: as §1, §2, §3, §4, §5

[3] = tested on: other tumor types; conditions: preliminary investigations; cited from earlier work
[4] = tested on: advanced breast and ovarian cancers; conditions: cited from earlier work

Structure (SMILES) | IC50 [1] [µg/mL] | IC50 [2] [µg/mL] | activity against other tumor types [3] | effectiveness in clinical trials [4]
CC(=O)O[C@@H]1C2=C(C)[C@@H](OC(=O)[C@H](O)[C@@H](NC(=O)NC(C)(C)C)c3ccccc3)C[C@@](O)([C@@H](OC(=O)c3ccccc3)[C@@H]3[C@]4(OC(C)=O)CO[C@@H]4C[C@H](O)[C@@]3(C)[C@H]1O)C2(C)C [Example 30, N-Debenzoyl-N-t-butylcarbamyl-9-dihydrotaxol] | 0.014 (≈ 0.0165 µM) | 0.017 (≈ 0.02 µM) |  | 
CC(=O)O[C@H]1C(=O)[C@@]2(C)[C@H]([C@H](OC(=O)c3ccccc3)[C@]3(O)C[C@H](OC(=O)[C@H](O)[C@@H](NC(=O)c4ccccc4)c4ccccc4)C(C)=C1C3(C)C)[C@]1(OC(C)=O)CO[C@@H]1C[C@@H]2O [Taxol] |  |  | promising activity against a number of other tumor types | effective against advanced breast and ovarian cancers in clinical trials
